Laboratory results: ChEMBL document CHEMBL1127588, “A structure-activity relationship study of benzylic modifications of 4-[1-(1-naphthyl)ethyl]-1H-imidazoles on alpha 1- and alpha 2-adrenergic receptors” (J Med Chem, 1994)

Tests used:
[1] = target: T1, Adrenergic receptor alpha-1 (Rattus norvegicus, UniProt P15823+P23944+P43140); assay: Tested for its binding affinity against alpha-1 receptor in rat brain membrane; assay type: cell membranes
T1 sequence (P15823 whole entry): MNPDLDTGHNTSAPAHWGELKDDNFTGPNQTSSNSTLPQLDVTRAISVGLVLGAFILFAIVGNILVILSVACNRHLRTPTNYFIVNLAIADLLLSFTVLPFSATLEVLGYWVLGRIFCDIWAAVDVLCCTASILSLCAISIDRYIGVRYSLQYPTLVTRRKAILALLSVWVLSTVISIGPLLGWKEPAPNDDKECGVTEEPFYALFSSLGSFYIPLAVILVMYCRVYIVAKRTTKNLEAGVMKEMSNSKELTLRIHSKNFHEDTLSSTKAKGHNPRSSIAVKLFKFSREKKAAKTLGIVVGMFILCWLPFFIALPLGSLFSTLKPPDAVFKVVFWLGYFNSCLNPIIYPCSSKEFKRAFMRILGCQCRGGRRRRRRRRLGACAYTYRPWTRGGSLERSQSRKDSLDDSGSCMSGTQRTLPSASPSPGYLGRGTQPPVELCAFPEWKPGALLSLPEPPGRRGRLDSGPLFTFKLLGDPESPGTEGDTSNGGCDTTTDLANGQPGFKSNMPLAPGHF
T1 sequence (P23944 whole entry): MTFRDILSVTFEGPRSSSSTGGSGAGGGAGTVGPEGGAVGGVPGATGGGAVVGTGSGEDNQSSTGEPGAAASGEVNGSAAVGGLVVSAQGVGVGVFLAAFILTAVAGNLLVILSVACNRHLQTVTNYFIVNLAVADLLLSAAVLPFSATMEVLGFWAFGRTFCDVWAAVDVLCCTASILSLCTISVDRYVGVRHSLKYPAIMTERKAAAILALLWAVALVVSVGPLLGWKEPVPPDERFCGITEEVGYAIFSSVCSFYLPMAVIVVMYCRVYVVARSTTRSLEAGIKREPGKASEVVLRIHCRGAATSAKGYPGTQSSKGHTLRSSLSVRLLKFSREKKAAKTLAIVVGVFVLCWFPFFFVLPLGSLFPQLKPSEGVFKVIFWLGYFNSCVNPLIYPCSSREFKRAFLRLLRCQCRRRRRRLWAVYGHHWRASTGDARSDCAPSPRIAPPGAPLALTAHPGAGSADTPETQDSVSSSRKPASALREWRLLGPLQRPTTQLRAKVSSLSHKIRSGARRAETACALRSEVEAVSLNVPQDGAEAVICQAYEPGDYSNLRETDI
T1 sequence (P43140 whole entry): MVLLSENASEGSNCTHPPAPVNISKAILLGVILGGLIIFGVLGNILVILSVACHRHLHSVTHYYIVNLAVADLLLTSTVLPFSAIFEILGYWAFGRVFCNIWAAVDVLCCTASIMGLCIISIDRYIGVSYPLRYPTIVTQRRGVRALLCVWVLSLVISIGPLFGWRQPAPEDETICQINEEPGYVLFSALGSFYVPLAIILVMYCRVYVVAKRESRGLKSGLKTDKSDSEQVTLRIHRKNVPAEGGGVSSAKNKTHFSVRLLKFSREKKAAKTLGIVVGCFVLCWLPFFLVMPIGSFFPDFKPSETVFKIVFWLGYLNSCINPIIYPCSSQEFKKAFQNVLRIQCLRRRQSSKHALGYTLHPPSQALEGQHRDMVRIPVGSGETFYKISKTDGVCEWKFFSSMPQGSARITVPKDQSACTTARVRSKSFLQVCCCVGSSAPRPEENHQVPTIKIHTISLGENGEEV

[2] = target: T2, Adrenergic receptor alpha-1 (Homo sapiens, UniProt P35348+P25100+P35368); assay: Tested for its inhibitory activity against alpha-1 adrenoceptor in guinea pig ileum; assay type: tissue-based, Cavia porcellus; conditions: target entry is the homologue from another species
T2 sequence (P35348 whole entry): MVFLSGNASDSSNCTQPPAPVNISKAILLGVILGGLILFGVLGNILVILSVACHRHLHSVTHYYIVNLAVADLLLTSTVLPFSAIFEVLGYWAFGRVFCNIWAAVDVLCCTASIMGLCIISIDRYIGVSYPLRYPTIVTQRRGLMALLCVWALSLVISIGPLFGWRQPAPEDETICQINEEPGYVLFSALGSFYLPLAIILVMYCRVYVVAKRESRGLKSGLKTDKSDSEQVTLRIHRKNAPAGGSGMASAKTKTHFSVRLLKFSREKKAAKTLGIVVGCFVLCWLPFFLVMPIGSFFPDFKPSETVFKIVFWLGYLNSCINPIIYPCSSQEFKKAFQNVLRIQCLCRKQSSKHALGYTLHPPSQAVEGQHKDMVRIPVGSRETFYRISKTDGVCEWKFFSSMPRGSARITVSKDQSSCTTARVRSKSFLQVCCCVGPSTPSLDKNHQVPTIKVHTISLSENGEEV
T2 sequence (P25100 whole entry): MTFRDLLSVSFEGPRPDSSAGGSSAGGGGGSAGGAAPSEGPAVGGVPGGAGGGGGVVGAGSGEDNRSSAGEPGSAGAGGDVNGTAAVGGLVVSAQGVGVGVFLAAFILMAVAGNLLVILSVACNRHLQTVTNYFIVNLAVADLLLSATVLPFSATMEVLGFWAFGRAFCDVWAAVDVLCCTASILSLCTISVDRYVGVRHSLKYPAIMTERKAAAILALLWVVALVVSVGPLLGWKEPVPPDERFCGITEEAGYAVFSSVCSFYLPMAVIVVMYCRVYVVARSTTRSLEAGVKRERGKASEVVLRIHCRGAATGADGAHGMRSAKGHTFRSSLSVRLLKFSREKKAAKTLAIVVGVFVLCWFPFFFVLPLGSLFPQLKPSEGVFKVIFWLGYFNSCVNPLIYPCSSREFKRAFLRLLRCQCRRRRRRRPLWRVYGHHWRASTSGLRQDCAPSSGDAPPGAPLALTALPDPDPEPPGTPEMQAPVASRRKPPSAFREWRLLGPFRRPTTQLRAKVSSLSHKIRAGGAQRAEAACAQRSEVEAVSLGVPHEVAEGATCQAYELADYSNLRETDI
T2 sequence (P35368 whole entry): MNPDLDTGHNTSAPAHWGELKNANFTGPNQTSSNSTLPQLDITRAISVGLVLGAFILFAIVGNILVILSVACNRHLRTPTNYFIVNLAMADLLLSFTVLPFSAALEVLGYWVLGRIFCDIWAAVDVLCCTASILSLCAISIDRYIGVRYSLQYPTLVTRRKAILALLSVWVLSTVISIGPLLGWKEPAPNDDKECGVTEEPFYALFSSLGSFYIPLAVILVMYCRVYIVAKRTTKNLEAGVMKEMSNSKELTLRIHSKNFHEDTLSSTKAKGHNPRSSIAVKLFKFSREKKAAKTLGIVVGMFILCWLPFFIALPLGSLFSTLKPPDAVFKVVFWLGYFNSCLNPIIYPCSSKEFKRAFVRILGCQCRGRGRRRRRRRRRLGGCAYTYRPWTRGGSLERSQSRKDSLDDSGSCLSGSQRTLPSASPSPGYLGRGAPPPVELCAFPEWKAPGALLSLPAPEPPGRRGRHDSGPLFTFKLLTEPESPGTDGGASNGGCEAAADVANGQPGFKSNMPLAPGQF

Structure (SMILES) | Ki [1] [µM] | EC50 [2] [µM]
COC(c1c[nH]cn1)c1cccc2ccccc12.Cl (stereo not drawn) | > 50 | –
Cc1cccc(C(C)c2c[nH]cn2)c1C (stereo not drawn) [MEDETOMIDINE] | 1.102 | 1.165
Cl.c1ccc2c(Cc3c[nH]cn3)cccc2c1 | 0.188 | 2.113
CC(c1c[nH]cn1)c1cccc2ccccc12 (stereo in doubt; 2) | 0.31 | 5.793
CC(c1c[nH]cn1)c1cccc2ccccc12 (stereo in doubt; S-(+)-2) | 0.461 | 8.273
CC(c1c[nH]cn1)c1cccc2ccccc12 (stereo in doubt; S-(-)-2) | 0.536 | 10.814
Cl.OC(c1c[nH]cn1)c1cccc2ccccc12 (stereo not drawn) | 9.255 | 12.692
